From patent US20250049036A1 (priority 2021, published 2025)

What was measured:
Alternaria solani = Alternaria solani (early blight of tomato/potato) mycelial radial growth on potato dextrose agar; type: cell-based; settings: 168 h, 25° C., seven days, read-out: control compared to the untreated check
Experimental: The compounds were dissolved in 0.3% dimethyl sulfoxide and then added to potato dextrose agar medium just prior to dispensing it into petri dishes. 5 mL medium, with the compound in the desired concentration, was dispensed into 60 mm sterile petri-plates. After solidification, each plate was seeded with a 5 mm size mycelial disc taken from the periphery of an actively growing virulent culture plate. The plates were incubated in growth chambers at 25° C. temperature and 60% relative humidity for seven days and the radial growth was measured and compared to the one of the untreated control.

Parastagonospora nodorum = Parastagonospora nodorum (PARANO) spore growth inhibition in liquid medium, 96-well microtiter plate, OD 600; type: cell-based; settings: spore suspension in PDB liquid medium, 18° C., 5-6 days, OD at 600, read-out: control compared to the untreated check
How it was run: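 Read-out is percent growth inhibition from OD at 600 after 5-6 days at 18° C. Compounds, dissolved in DMSO, were diluted in potato dextrose broth and combined in equal volume with a 10^5 spores/ml suspension of PARANO.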

Pyricularia oryzae = assay: microbe, parasite or virus in culture; type: cell-based; settings: 168 h, read-out: control compared to the untreated check
Phakopsora pachyrhizi = Phakopsora pachyrhizi test on soybean, preventive, greenhouse; type: in vivo; settings: preventive spray on soybean, inoculated one day after treatment, read-out: control (efficacy, disease severity) compared to the untreated check
How it was run: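 Greenhouse-grown young soybean plants were sprayed with compound (2% DMSO/acetone, emulsifier in water) at the stated rate. One day later they were inoculated with 2×10^5 P. pachyrhizi inoculum and held at 22-24 °C, 80-90% relative humidity for disease development.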

Botrytis cinerea [1] = assay: Botrytis cinerea (gray mold) mycelial radial growth on potato dextrose agar; type: cell-based; settings: 168 h, 22° C., seven days, read-out: control compared to the untreated check
Experimental: The compounds were dissolved in 0.3% dimethyl sulfoxide and then added to potato dextrose agar medium just prior to dispensing it into petri dishes. 5 mL medium, with the compound in the desired concentration, was dispensed into 60 mm sterile petri-plates. After solidification, each plate was seeded with a 5 mm size mycelial disc taken from the periphery of an actively growing virulent culture plate. The plates were incubated in growth chambers at 22° C. temperature and 90% relative humidity for seven days and the radial growth was measured and compared to the one of the untreated control.

Phytophthora infestans [2] = assay: whole plant or invertebrate; type: in vivo, Phytophthora infestans on tomato; settings: in Solanum lycopersicum, read-out: control (efficacy, disease severity) compared to the untreated check
Venturia Inequalis = assay: Venturia inequalis (VENTIN) spore growth inhibition in liquid medium, 96-well microtiter plate, OD 600; type: cell-based; settings: spore suspension in PDB liquid medium, 18° C., 15-18 days, OD at 600, read-out: control compared to the untreated check
Experimental: Potato dextrose (PDB) liquid medium containing a VENTIN (10^5 spores/ml) spore suspension was prepared. For the inhibition assay, each test compound was solved in dimethyl sulfoxide. 100 μl of the test compound in media-solution was added to a 96-well microtiter plate, consequently, the same volume (100 μl) of spore suspension was added to the well making the final test concentrations and the treated plate was incubated at 18° C. for 15-18 days. The growth inhibition was evaluated by measuring the OD at 600. Percent inhibition was calculated with the below formula: […]

Botrytis cinerea [3] = assay: Botrytis cinerea liq. (BOTRCI) spore growth inhibition in liquid medium, 96-well microtiter plate, OD 405 nm; type: cell-based; settings: spore suspension in YBA liquid medium, 22° C., 5-6 days, OD at 405 nm, read-out: control compared to the untreated check
How it was run: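 Spore suspension of B. cinerea (10^4 spores/ml) in YBA liquid medium mixed 1:1 with compound diluted from DMSO. Incubated at 22° C. for 5-6 days. Growth read as OD 405 nm; percent inhibition derived from treatment, untreated-control and blank readings.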

Colletotrichum capsici = Colletotrichum capsici (anthracnose) mycelial radial growth on potato dextrose agar; type: cell-based; settings: Colletotrichum truncatum, 168 h, 25° C., seven days, read-out: control compared to the untreated check
How it was run: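 Compounds in 0.3% DMSO were mixed into potato dextrose agar, and each plate was seeded with a 5 mm mycelial disc from an actively growing culture. Plates were incubated at 25° C and 60% relative humidity for seven days. Radial growth was compared with untreated control.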

Botrytis cinerea [4] = assay: Botrytis cinerea test on tomato, preventive, greenhouse; type: in vivo; settings: preventive spray on bean/chili plants (heading: tomato), inoculated one day after treatment, read-out: control (efficacy, disease severity) compared to the untreated check
Phytophthora infestans [5] = assay: microbe, parasite or virus in culture; type: cell-based; settings: 168 h, read-out: control compared to the untreated check

CC(c1ccccc1Cl)C(C)(C)NC(=O)c1cnc2c(ccn2C)c1 (stereo not drawn) [Compound 7, N-(3-(2-chlorophenyl)-2-methylbutan-2-yl)-1-methyl-1H-pyrrolo[2,3-b]pyridine-5-carboxamide]
≥ 70%: inhibition of growth at 300 ppm (Alternaria solani) | inhibition of growth at 300 ppm (Parastagonospora nodorum) | inhibition of growth at 300 ppm (Pyricularia oryzae)

Cc1nc2c(ccn2C)cc1C(=O)NC(C)(C)C(C)c1ccccc1Cl (stereo not drawn) [Compound 40, N-(3-(2-chlorophenyl)-2-methylbutan-2-yl)-1,6-dimethyl-1H-pyrrolo[2,3-b]pyridine-5-carboxamide]
≥ 70%: pest or weed control at 500 ppm (Phakopsora pachyrhizi) | inhibition of growth at 300 ppm (Botrytis cinerea [1]) | inhibition of growth at 300 ppm (Parastagonospora nodorum) | inhibition of growth at 300 ppm (Pyricularia oryzae) | pest or weed control at 500 ppm (Phytophthora infestans [2])

Cn1cc(F)c2cc(C(=O)NC(C)(C)Cc3ccc(Cl)c(F)c3)cnc21 [Compound 69, N-(1-(4-chloro-3-fluorophenyl)-2-methylpropan-2-yl)-3-fluoro-1-methyl-1H-pyrrolo[2,3-b]pyridine-5-carboxamide]
≥ 70%: inhibition of growth at 300 ppm (Venturia Inequalis) | inhibition of growth at 300 ppm (Pyricularia oryzae) | pest or weed control at 500 ppm (Phytophthora infestans [2])

CC(CCc1ccccc1)NC(=O)c1cnc2c(ccn2C)c1 (stereo not drawn) [Compound 75, 1-methyl-N-(4-phenylbutan-2-yl)-1H-pyrrolo[2,3-b]pyridine-5-carboxamide]
≥ 70%: inhibition of growth at 300 ppm (Botrytis cinerea [3]) | pest or weed control at 500 ppm (Phakopsora pachyrhizi) | inhibition of growth at 300 ppm (Venturia Inequalis) | inhibition of growth at 300 ppm (Botrytis cinerea [1]) | inhibition of growth at 300 ppm (Colletotrichum capsici) | inhibition of growth at 300 ppm (Parastagonospora nodorum) | pest or weed control at 500 ppm (Botrytis cinerea [4]) | pest or weed control at 500 ppm (Phytophthora infestans [2])

Cn1ccc2cc(C(=O)NC3(Cc4ccccc4)CCCCC3)cnc21 [Compound 11, N-(1-benzylcyclohexyl)-1-methyl-1H-pyrrolo[2,3-b]pyridine-5-carboxamide]
≥ 70%: inhibition of growth at 300 ppm (Alternaria solani) | inhibition of growth at 300 ppm (Colletotrichum capsici) | inhibition of growth at 300 ppm (Parastagonospora nodorum) | inhibition of growth at 300 ppm (Pyricularia oryzae)

Cn1ccc2cc(C(=O)NCC3(c4ccccc4)CC3)cnc21 [Compound 79, 1-methyl-N-((1-phenylcyclopropyl)methyl)-1H-pyrrolo [2,3-b]pyridine-5-carboxamide]
≥ 70%: inhibition of growth at 300 ppm (Venturia Inequalis) | inhibition of growth at 300 ppm (Parastagonospora nodorum) | inhibition of growth at 300 ppm (Pyricularia oryzae) | inhibition of growth at 300 ppm (Phytophthora infestans [5]) | pest or weed control at 500 ppm (Phytophthora infestans [2])

Cn1ccc2cc(C(=O)NC(C)(C)Cc3ccccc3)cnc21 [Compound 1, 1-methyl-N-(2-methyl-1-phenylpropan-2-yl)-1H-pyrrolo[2,3-b]pyridine-5-carboxamide]
≥ 70%: inhibition of growth at 300 ppm (Alternaria solani) | pest or weed control at 500 ppm (Phakopsora pachyrhizi) | inhibition of growth at 300 ppm (Colletotrichum capsici) | inhibition of growth at 300 ppm (Pyricularia oryzae) | pest or weed control at 500 ppm (Botrytis cinerea [4])

Cn1ccc2cc(C(=O)NC3(Cc4ccccc4)CC3)cnc21 [Compound 39, N-(1-benzylcyclopropyl)-1-methyl-1H-pyrrolo[2,3-b]pyridine-5-carboxamide]
≥ 70%: pest or weed control at 500 ppm (Phakopsora pachyrhizi) | inhibition of growth at 300 ppm (Venturia Inequalis) | inhibition of growth at 300 ppm (Colletotrichum capsici) | inhibition of growth at 300 ppm (Pyricularia oryzae) | inhibition of growth at 300 ppm (Phytophthora infestans [5]) | pest or weed control at 500 ppm (Phytophthora infestans [2])

Cn1cc(Cl)c2cc(C(=O)NC(C)(C)Cc3ccccc3Cl)cnc21 [Compound 83, 3-chloro-N-(1-(2-chlorophenyl)-2-methylpropan-2-yl)-1-methyl-1H-pyrrolo[2,3-b]pyridine-5-carboxamide]
≥ 70%: pest or weed control at 500 ppm (Phakopsora pachyrhizi) | inhibition of growth at 300 ppm (Venturia Inequalis) | inhibition of growth at 300 ppm (Pyricularia oryzae) | pest or weed control at 500 ppm (Botrytis cinerea [4]) | pest or weed control at 500 ppm (Phytophthora infestans [2])

CC(C)CC(C)(Cc1ccccc1)NC(=O)c1cnc2c(c1)c(Cl)cn2C (stereo not drawn) [Compound 52, 3-chloro-N-(2,4-dimethyl-1-phenylpentan-2-yl)-1-methyl-1H-pyrrolo[2,3-b]pyridine-5-carboxamide]
≥ 70%: pest or weed control at 500 ppm (Phakopsora pachyrhizi) | inhibition of growth at 300 ppm (Venturia Inequalis) | pest or weed control at 500 ppm (Phytophthora infestans [2])

CC(C)(Cc1ccc(F)cc1)NC(=O)c1cnc2[nH]ccc2c1 [Compound 41, N-(1-(4-fluorophenyl)-2-methylpropan-2-yl)-1H-pyrrolo[2,3-b] pyridine-5-carboxamide]
≥ 70%: pest or weed control at 500 ppm (Phakopsora pachyrhizi) | inhibition of growth at 300 ppm (Venturia Inequalis) | inhibition of growth at 300 ppm (Phytophthora infestans [5]) | pest or weed control at 500 ppm (Botrytis cinerea [4]) | pest or weed control at 500 ppm (Phytophthora infestans [2])

Cn1ccc2cc(C(=O)NC3(Cc4cccc(Cl)c4)CCCCC3)cnc21 [Compound 12, N-(1-(3-chlorobenzyl)cyclohexyl)-1-methyl-1H-pyrrolo[2,3-b]pyridine-5-carboxamide]
≥ 70%: inhibition of growth at 300 ppm (Alternaria solani) | inhibition of growth at 300 ppm (Colletotrichum capsici) | inhibition of growth at 300 ppm (Pyricularia oryzae)

Cn1cc(Cl)c2cc(C(=O)NC(C)(C)Cc3ccccc3)cnc21 [Compound 53, 3-chloro-1-methyl-N-(2-methyl-1-phenylpropan-2-yl)-1H-pyrrolo[2,3-b] pyridine-5-carboxamide]
≥ 70%: pest or weed control at 500 ppm (Phakopsora pachyrhizi) | inhibition of growth at 300 ppm (Venturia Inequalis) | inhibition of growth at 300 ppm (Pyricularia oryzae) | pest or weed control at 500 ppm (Phytophthora infestans [2])

Cn1ccc2cc(C(=O)NC(C)(C)Cc3cccc(C(F)(F)F)c3)cnc21 [Compound 14, 1-methyl-N-(2-methyl-1-(3-(trifluoromethyl)phenyl)propan-2-yl)-1H-pyrrolo[2,3-b]pyridine-5-carboxamide]
≥ 70%: inhibition of growth at 300 ppm (Botrytis cinerea [3]) | inhibition of growth at 300 ppm (Alternaria solani)

Cn1cc(F)c2cc(C(=O)NC(C)(C)Cc3ccccc3F)cnc21 [Compound 68, 3-fluoro-N-(1-(2-fluorophenyl)-2-methylpropan-2-yl)-1-methyl-1H-pyrrolo[2,3-b]pyridine-5-carboxamide]
≥ 70%: pest or weed control at 500 ppm (Phakopsora pachyrhizi) | inhibition of growth at 300 ppm (Venturia Inequalis) | pest or weed control at 500 ppm (Phytophthora infestans [2])

Cn1ccc2cc(C(=O)NC(C)(C)C(C)(C)c3ccccc3)cnc21 [Compound 5, N-(2,3-dimethyl-3-phenylbutan-2-yl)-1-methyl-1H-pyrrolo[2,3-b]pyridine-5-carboxamide]
≥ 70%: inhibition of growth at 300 ppm (Alternaria solani) | pest or weed control at 500 ppm (Phakopsora pachyrhizi) | inhibition of growth at 300 ppm (Parastagonospora nodorum)

CC(C)CC(C)(Cc1ccccc1)NC(=O)c1cnc2[nH]ccc2c1 (stereo not drawn) [Compound 28, N-(2,4-dimethyl-1-phenylpentan-2-yl)-1H-pyrrolo[2,3-b] pyridine-5-carboxamide]
≥ 70%: inhibition of growth at 300 ppm (Alternaria solani) | pest or weed control at 500 ppm (Phakopsora pachyrhizi) | inhibition of growth at 300 ppm (Colletotrichum capsici) | inhibition of growth at 300 ppm (Parastagonospora nodorum) | inhibition of growth at 300 ppm (Phytophthora infestans [5])
